What all share (experiment): MIC, broth microdilution (CLSI), substance alone or ATB combined with compound at 4 or 8 μg/mL
Background: Dilution methods test growth across graded concentrations, often in twofold steps.

One test has as its system ECO 190317. The format is cell-based, E. coli. Particulars: Escherichia coli, ECO 190317. The method in brief:
(§1)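 Growth inhibition endpoint, read visually after 16-20 h at 35° C in ambient air. Cation-adjusted Mueller-Hinton broth, inoculum 5·10^5 CFU/mL, CLSI M7-A7 protocol.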

Another test has as its system ECO UFR39. The format is cell-based, E. coli. Particulars: Escherichia coli, ECO UFR39. The method in brief:
as §1

In another test the test system is KPN 6299. Type of test: cell-based, K. pneumoniae. As to conditions: Klebsiella pneumoniae. The method in brief:
as §1

The subject of another test is KPN BAA-1898. The format is cell-based, K. pneumoniae. As to conditions: Klebsiella pneumoniae, BAA1898, KPN BAA-1898. An outline of the steps: as §1
A further test deals with KPN UFR42. The format is cell-based, K. pneumoniae. Particulars: Klebsiella pneumoniae, KPN UFR42. The method in brief: as §1
Another test relates to KPN UFR68. The format is cell-based, K. pneumoniae. As to conditions: Klebsiella pneumoniae, substance alone. The method in brief:
as §1

The next test deals with ECL P99. The format is cell-based, E. cloacae. Particulars: Enterobacter cloacae, ECL P99. The method in brief: as §1
A further test relates to PAE 105250. The format is cell-based, P. aeruginosa. Particulars: Pseudomonas aeruginosa, PAE 105250. The method in brief: as §1
The test system of another test is PAE UFR48. Type of test: cell-based, P. aeruginosa. As to conditions: Pseudomonas aeruginosa, PAE UFR48. An outline of the steps:
as §1

In another test the test system is PAE UFR90. The format is cell-based, P. aeruginosa. As to conditions: Pseudomonas aeruginosa, PAE UFR90. The method in brief: as §1
For a further test, the system named is SAU 29213. The format is cell-based, S. aureus. As to conditions: Staphylococcus aureus. The method in brief:
as §1

The test system of another test is SPN 49619. Type of test: cell-based, S. pneumoniae. Particulars: Streptococcus pneumoniae, SPN 49619. The method in brief:
as §1

Where [1] appears, read: antibiotic alone, read-out: MIC ATB alone.

SMILES strings stand for the structures. Read-outs that look alike come from different tables or passages of the source.

As for `CCN1CCN(C(=O)N[C@@H](C(=O)N[C@@H]2C(=O)N3[C@@H]2SC(C)(C)[C@@H]3C(=O)O)c2ccccc2)C(=O)C1=O` [PIP, Piperacillin, reference compound], the minimal inhibitory concentration (MIC) – broadly, the lowest concentration that inhibits growth of the organism – with ECO 190317 (setting [1]) was above 1020 µg/mL; in the test with ECO 190317 (substance alone, read-out: MIC), above 1020 µg/mL; with ECO UFR39 (setting [1]) it was above 1020 µg/mL; in the test on ECO UFR39 (substance alone, read-out: MIC), above 1020 µg/mL; with KPN 6299 (setting [1]), above 1020 µg/mL; with KPN 6299 (substance alone, read-out: MIC), above 1020 µg/mL. Besides, the MIC in the test with KPN BAA-1898 (setting [1]) is above 1020 µg/mL; with KPN BAA-1898 (substance alone, read-out: MIC) it was above 1020 µg/mL; in the test with KPN UFR42 (setting [1]) it was above 256 µg/mL; in the test with KPN UFR42 (substance alone, read-out: MIC), above 256 µg/mL; in the test with KPN UFR68, above 1020 µg/mL; with ECL P99 (setting [1]) it was 512 µg/mL. In addition, the MIC came to 512 µg/mL in the test on ECL P99 (substance alone, read-out: MIC); 128 µg/mL with PAE 105250 (setting [1]); 128 µg/mL in the test with PAE 105250 (substance alone, read-out: MIC); 256 µg/mL in the test on PAE UFR48 (setting [1]); 256 µg/mL in the test with PAE UFR48 (substance alone, read-out: MIC); 256 µg/mL with PAE UFR90 (setting [1]). For the same compound, the MIC with PAE UFR90 (substance alone, read-out: MIC) is 256 µg/mL; in the test on SAU 29213 (antibiotic alone, SAU 29213, read-out: MIC ATB alone), 8 µg/mL; in the test on SAU 29213 (substance alone, SAU 29213 (MSSA 29213), read-out: MIC), 8 µg/mL; with SPN 49619 (setting [1]) it was 0.5 µg/mL; in the test on SPN 49619 (substance alone, read-out: MIC), 0.5 µg/mL.

Values taken from patent US20200024278A1, “COMPOSITION COMPRISING ANTIBIOTIC COMPOUND AND AN HETEROCYCLIC COMPOUND AND THEIR USE IN PREVENTING OR TREATING BACTERIAL INFECTIONS” (MUTABILIS, priority 2016, published 2020).
